The test system of data set [1] is L. amazonensis promastigotes. Kind of data set: Antiproliferation assay: L. amazonensis promastigotes (72 h), MTT. Format: cell-based, Leishmania amazonensis (IFLA/BR/1967/PH8). The conditions noted are these: Leishmania amazonensis; 72 h exposure. How it is done: (§1) Leishmania amazonensis promastigotes (IFLA/BR/1967/PH8) for the 24 h exposure test were cultivated in RPMI 1640, supplemented with 20% v/v heat inactivated fetal bovine serum (FBS) and incubated at 26°C until near the end of the log growth phase. Leishmania amazonensis (IFLA/BR/1967/PH8) and L. infantum (MCAN/BR/2008/1112) promastigotes used in the 72 h exposure test were cultivated in Warren’s medium (containing brain heart infusion- BHI plus hemin and folic acid), supplemented with 10% FBS, 0.1% of the antibiotics: 100 UI/mL penicillin G and 0.1 mg/mL streptomycin. Leishmania amazonensis (IFLA/BR/1967/PH8) transfected with the red fluorescent protein (RFP) gene was cultured in M199 medium (containing 0.1 mmol/L adenine, 40 mmol/L hepes, 0.0005% hemin and 0.0002% biotin), supplemented with 10% FBS, and 0.1% of the antibiotic. Parasites were maintained at 25°C in a BOD incubator.
(§2) Extracts and isolated compounds were tested against L. amazonensis promastigotes (IFLA/BR/1967/PH8 strain - 2x10^5 cells/well) and L. infantum promastigotes (MCAN/BR/2008/1112 strain - 3x10^5 cells/well). The samples were solubilized in DMSO (<1%), serially diluted (100 μg/mL to 1.56 μg/mL) and tested in a 96-well plate to obtain a dose-response curve. Miltefosine and DMSO were used as positive and negative controls, respectively. After 72 h, 10 μL of 3-(4,5-dimethylthiazol-2-yl)-2,5-diphenyl tetrazolium bromide (5 mg/mL—MTT, Sigma-Aldrich) solution was added to each well and the plate returned to the incubator for an additional 4 h. To halt the reaction, 100 μL acidified isopropanol was added to each well. Plates were read at 570 nm in a microplate reader (Multiskan MS, LabSystems Oy, Helsinki, Finland).

Another data set concerns L. infantum amastigotes. Kind of data set: L. infantum amastigotes assay (Giemsa, infection index). It is filed as cell-based, Leishmania infantum. As to the method: Peritoneal macrophages (6 x 10^5 cells) were plated on round glass coverslips within 24-well plates in RPMI 1640 medium supplemented with FBS and 20 mM L-glutamine, pH 7.2, and incubated for 24 h at 37°C in 5% CO2. Stationary-phase promastigotes (6 x 10^6 cells, at a ratio of 10 parasites per macrophage) were then added to the wells, and cultures incubated for 24 h at 37°C in 5% CO2. Non-internalized parasites were removed by extensive PBS solution washing and infected macrophages subsequently treated with nontoxic concentrations of: compound 3 (6.25 μg/mL to 0.18 μg/mL) or miltefosine (10.0 μg/mL to 0.6 μg/mL, positive control) for 72 h at 37°C in 5% CO2. After compound exposure, cells were fixed with absolute ethanol and stained with Giemsa. A total of 200 macrophages were counted under a light microscope. The infection index was determined by the […] percentage of infected macrophages multiplied by the mean number of amastigotes per macrophage out of 200 macrophages.

A short description of another data set: Cytotoxicity assay (MTT). It is filed as cell-based, BALB/c mice. The conditions noted are these: female, BALB/c, mouse, murine peritoneal macrophages; 72 h exposure. How it is done: Female BALB/c mice pre-inoculated with 3% thioglycollate medium were used to obtain macrophages from the peritoneal cavity. Peritoneal exudate was collected 72 h post-inoculation using cold Hank´s Balanced Salt Solution and the assay performed as previously reported. Briefly, peritoneal macrophages in RPMI 1640 medium were transferred to a 96-well plate (2x10^5 cells/well) and incubated at 37°C in 5% CO2 for 24 h to allow adhesion. Samples were serially diluted (100 μg/mL to 0.78 μg/mL), added to the plate with the cells and incubated under the same conditions for 72 h. MTT (10 μL/well) was subsequently added and the plates re-incubated for a further 2 h. To halt the reaction, 100 μL of acidified isopropanol was added to each well. The plate was then read at 570 nm in a microplate reader (Multiskan MS, LabSystems Oy, Helsinki, Finland).

For data set [2], the system named is L. amazonensis promastigotes. Kind of data set: Neutral lipid quantification (Nile Red). The conditions noted are these: 24 h; 2 at 33.8 μM, 3 at 11.4 μM. Format: cell-based, Leishmania amazonensis. As to the method:
After 24 h of exposure, the parasites (1x10^7 cells/well) were stained with 10 μg/mL Nile Red (Sigma-Aldrich, St. Louis, MO, USA) in the dark for 20 min at 25°C. Fluorescence intensity was analysed in a spectrofluorometer (BioTek Instruments, Inc., Winooski, VT, USA) using 485/528 nm excitation/emission.

Data set [3] concerns L. amazonensis promastigotes. Kind of data set: Cell membrane integrity (propidium iodide). Format: cell-based, Leishmania amazonensis. The conditions noted are these: 24 h; 2 at 33.8 μM, 3 at 11.4 μM. As to the method:
Plates were incubated with propidium iodide (PI) (1.0 μg/mL—Sigma-Aldrich, USA, St. Louis, MO, USA) for 15 min in the dark at RT. Fluorescence was measured using a spectrofluorometer (FLx800, BioTek Instruments, Inc., Winooski, VT, USA) with 540/600 nm excitation/emission. Parasites heated at 65 °C were used as the positive control.

The subject of data set [4] is L. infantum promastigotes. The experiment in a line: Antiproliferation assay: L. infantum promastigotes (72 h), MTT. Format: cell-based, Leishmania infantum (MCAN/BR/2008/1112). The conditions noted are these: Leishmania infantum, 72 h, 72 h exposure. As to the method:
as §1, §2

In data set [5] the test system is L. amazonensis promastigotes. Kind of data set: Reactive oxygen species (ROS) detection (H2DCFDA). The conditions noted are these: 24 h; 2 at 33.8 μM, 3 at 11.4 μM. Format: cell-based, Leishmania amazonensis. How it is done:
Fluorescence intensity was detected using a fluorimetric microplate reader (FLx800, BioTek Instruments, Inc., Winooski, VT, USA), at 485/528 nm excitation/emission. Promastigotes incubated with miltefosine (44.2 μM) were used as a positive control.

Data set [6] relates to L. amazonensis promastigotes. The experiment in a line: Antiproliferation assay: L. amazonensis promastigotes (24 h), resazurin. The conditions noted are these: Leishmania amazonensis, 24 h of exposure, read-out: IC50. It is filed as cell-based, Leishmania amazonensis (IFLA/BR/1967/PH8). How it is done: as §1
Extracts and fractions were tested against L. amazonensis (IFLA/BR/1967/PH8) promastigote cells in a 96-well plate at a concentration of 10^6 cells/well. Each sample was solubilized in DMSO (<1%) since it was not soluble directly in the medium. Extracts were tested at 100 μg/mL and 50 μg/mL. […] Plates were read at 570 nm and 595 nm in a microplate reader (BiochromAsys UVM 340) after cell lysis with sodium dodecyl sulfate (SDS). Viability was calculated based on the equations described by Kulshrestha.
For orientation: Resazurin is reduced to fluorescent resorufin, in cell work by metabolically active cells.

This note sets out measurements from PMC7647111, “Antileishmanial compounds from Connarus suberosus: Metabolomics, isolation and mechanism of action” (PLoS ONE, 2020).

“And” between values parts separate entries of the source, which are not always exact repeats. Identical values can stand only once.

As usually defined, the IC50 is the concentration at which inhibition is half-maximal. The term CC50 denotes the concentration at which the toxic effect on the cells reaches its halfway point. A lower CC50 goes with greater toxicity to the cells.

In the case of `C=C[C@@H](c1cc(CC=C(C)C)ccc1O)c1cc(CC=C(C)C)c(OC)cc1O` [Compound 3, connarin], the IC50 was 4.5 µg/mL and 11.4 µM in data set [1]; 7.7 µM in the data set on L. infantum amastigotes (Leishmania infantum, intracellular, 72 h); 5.2 µg/mL and 13.3 µM in data set [4]; 20.5 µM in data set [6]. Moreover, the “SI (Selectivity Index)” value with L. infantum amastigotes (L. infantum amastigotes) came out at 2.4. In addition, in the data set “Cytotoxicity assay (MTT)”, the CC50 at 72 h is 7.2 µg/mL and 18.3 µM. The “increase in neutral lipid levels in relation to the untreated control” value in data set [2] came to 82.0%. Moreover, in data set [3], the “plasma membrane integrity (PI-positive parasites)” value is given as “did not interfere with plasma membrane permeation”. Besides, the ROS level result in data set [5] is reported as “no alteration in the ROS level”.
